Positions count from the first letter of the chain named.
Columns and labels:
κB-Ras1–RGα2N complex = target: T1, κB-Ras1–RGα2N complex (Homo sapiens, UniProt Q9NYS0); assay: X-ray crystal structure, […] Å; details: Mg2+; 100 µM GNP added; nucleotide-binding pocket of κB-Ras1
T1 construct: gene NKIRAS1; GST-κB-Ras1 (2-175; 1-175 in Results) coexpressed in bacteria with 6xHis-SUMO-RGα2N (2-255, N-terminal domain); SUMO protease added, purified essentially as before, SEC
T1 sequence (Q9NYS0 2-175): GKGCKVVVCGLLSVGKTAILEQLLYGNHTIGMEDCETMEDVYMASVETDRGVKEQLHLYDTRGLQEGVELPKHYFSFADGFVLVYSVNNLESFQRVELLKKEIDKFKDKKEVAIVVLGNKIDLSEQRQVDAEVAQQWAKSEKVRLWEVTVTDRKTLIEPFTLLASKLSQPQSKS
T1 sequence (Q2PPJ7 2-255 partner): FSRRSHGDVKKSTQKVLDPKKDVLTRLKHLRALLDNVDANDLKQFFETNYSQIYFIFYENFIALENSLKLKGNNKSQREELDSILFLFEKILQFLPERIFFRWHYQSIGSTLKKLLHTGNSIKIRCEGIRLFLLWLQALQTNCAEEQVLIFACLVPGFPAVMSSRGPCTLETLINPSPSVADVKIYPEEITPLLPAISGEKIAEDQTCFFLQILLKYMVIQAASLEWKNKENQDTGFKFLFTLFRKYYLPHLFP

κB-Ras1 [1] = target: T2, κB-Ras1 (Homo sapiens, UniProt Q9NYS0); assay: intrinsic GTP hydrolysis, HPLC of GTP/GDP; type: biochemical; details: 100 µM GTP, 24 h, 5 mM MgCl2, pH 7.5
T2 construct: gene NKIRAS1; residues 2-175, GST fusion from E. coli Rosetta, GST cut on column with PreScission protease, SEC
T2 sequence (Q9NYS0 2-175): T1 sequence (Q9NYS0 2-175)

κB-Ras1 [2] = target: T3, κB-Ras1 (Homo sapiens, UniProt Q9NYS0, L65Q); assay: intrinsic GTP hydrolysis, HPLC of GTP/GDP; type: biochemical; details: 100 µM GTP, 24 h, 5 mM MgCl2, pH 7.5
T3 construct: gene NKIRAS1; residues 2-175, GST fusion from E. coli Rosetta, GST cut on column with PreScission protease, SEC
T3 sequence (Q9NYS0 2-175 L65Q): T1 sequence (Q9NYS0 2-175) with L64Q

κB-Ras1 [3] = target: T4, κB-Ras1 (Homo sapiens, UniProt Q9NYS0, G64A); assay: intrinsic GTP hydrolysis, HPLC of GTP/GDP; type: biochemical; details: 100 µM GTP, 24 h, 5 mM MgCl2, pH 7.5
T4 construct: gene NKIRAS1; residues 2-175, GST fusion from E. coli Rosetta, GST cut on column with PreScission protease, SEC
T4 sequence (Q9NYS0 2-175 G64A): T1 sequence (Q9NYS0 2-175) with G63A

| Compound | X-ray crystal structure, 2.72 Å (κB-Ras1–RGα2N complex) | intrinsic GTP hydrolysis, HPLC of GTP/GDP (κB-Ras1 [1]) | intrinsic GTP hydrolysis, HPLC of GTP/GDP (κB-Ras1 [2]) | intrinsic GTP hydrolysis, HPLC of GTP/GDP (κB-Ras1 [3]) |
| --- | --- | --- | --- | --- |
| Nc1nc2c(ncn2[C@@H]2O[C@H](COP(=O)(O)OP(=O)(O)NP(=O)(O)O)[C@@H](O)[C@H]2O)c(=O)[nH]1 [GNP, 5′-guanylyl imidodiphosphate] | nucleotide-binding pocket of κB-Ras1 is occupied by a magnesium ion and the nonhydrolyzable GTP analog | – | – | – |
| Nc1nc2c(ncn2[C@@H]2O[C@H](COP(=O)(O)OP(=O)(O)OP(=O)(O)O)[C@@H](O)[C@H]2O)c(=O)[nH]1 [GTP] | – | intrinsic GTP hydrolysis by K-Ras, Rheb, κB-Ras1 WT, and variants measured in vitro | GTP hydrolysis was also not altered by this mutation | This substitution did not reduce intrinsic GTP hydrolysis activity of κB-Ras1 in vitro |

Source: article PMC12314375, “The GTPase κB-Ras is an essential subunit of the RalGAP tumor suppressor complex” (The Journal of Biological Chemistry, 2025)
